# Assay results as given in ChEMBL document CHEMBL1201862, “PubChem BioAssay data set” (2004).
# Active and inactive are the calls of the source.
# Assays:
# [1] = Counterscreen for AddAB inhibitors: absorbance-based bacterial cell-based high throughput dose response assay for inhibitors of bacterial viability. [Related pubchem assays (depositor defined):AID435030, AID449728, AID449731, AID488942, AID488955, AID488956]; type: functional
# Exodeoxyribonuclease V = target: T1, Exodeoxyribonuclease V (Escherichia coli (strain K12), UniProt P04993+P07648+P08394); assay: E. coli RecBCD inhibitors, dose response, counter-screen for AddAB inhibitor project, absorbance, V66 E. coli, mutant T4 phage (AID 492957); type: functional, cell-based, Escherichia coli str. K-12 substr. MG1655
# T1 sequence (P04993 whole entry): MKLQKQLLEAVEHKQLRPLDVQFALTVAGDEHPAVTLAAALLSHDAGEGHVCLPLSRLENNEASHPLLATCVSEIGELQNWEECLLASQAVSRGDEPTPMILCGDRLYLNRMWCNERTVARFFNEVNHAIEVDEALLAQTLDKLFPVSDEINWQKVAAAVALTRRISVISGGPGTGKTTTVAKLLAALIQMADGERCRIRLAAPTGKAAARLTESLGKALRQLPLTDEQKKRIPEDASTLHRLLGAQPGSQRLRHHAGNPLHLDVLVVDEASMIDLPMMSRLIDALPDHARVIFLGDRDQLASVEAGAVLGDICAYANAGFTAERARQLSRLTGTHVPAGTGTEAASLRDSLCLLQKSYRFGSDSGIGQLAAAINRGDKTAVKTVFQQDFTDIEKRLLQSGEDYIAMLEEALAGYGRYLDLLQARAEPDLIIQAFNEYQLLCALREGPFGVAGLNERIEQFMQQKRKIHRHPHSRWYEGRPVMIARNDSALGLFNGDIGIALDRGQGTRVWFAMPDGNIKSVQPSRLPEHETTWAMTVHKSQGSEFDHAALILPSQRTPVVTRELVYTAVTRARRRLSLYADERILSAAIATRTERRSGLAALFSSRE
# T1 sequence (P07648 whole entry): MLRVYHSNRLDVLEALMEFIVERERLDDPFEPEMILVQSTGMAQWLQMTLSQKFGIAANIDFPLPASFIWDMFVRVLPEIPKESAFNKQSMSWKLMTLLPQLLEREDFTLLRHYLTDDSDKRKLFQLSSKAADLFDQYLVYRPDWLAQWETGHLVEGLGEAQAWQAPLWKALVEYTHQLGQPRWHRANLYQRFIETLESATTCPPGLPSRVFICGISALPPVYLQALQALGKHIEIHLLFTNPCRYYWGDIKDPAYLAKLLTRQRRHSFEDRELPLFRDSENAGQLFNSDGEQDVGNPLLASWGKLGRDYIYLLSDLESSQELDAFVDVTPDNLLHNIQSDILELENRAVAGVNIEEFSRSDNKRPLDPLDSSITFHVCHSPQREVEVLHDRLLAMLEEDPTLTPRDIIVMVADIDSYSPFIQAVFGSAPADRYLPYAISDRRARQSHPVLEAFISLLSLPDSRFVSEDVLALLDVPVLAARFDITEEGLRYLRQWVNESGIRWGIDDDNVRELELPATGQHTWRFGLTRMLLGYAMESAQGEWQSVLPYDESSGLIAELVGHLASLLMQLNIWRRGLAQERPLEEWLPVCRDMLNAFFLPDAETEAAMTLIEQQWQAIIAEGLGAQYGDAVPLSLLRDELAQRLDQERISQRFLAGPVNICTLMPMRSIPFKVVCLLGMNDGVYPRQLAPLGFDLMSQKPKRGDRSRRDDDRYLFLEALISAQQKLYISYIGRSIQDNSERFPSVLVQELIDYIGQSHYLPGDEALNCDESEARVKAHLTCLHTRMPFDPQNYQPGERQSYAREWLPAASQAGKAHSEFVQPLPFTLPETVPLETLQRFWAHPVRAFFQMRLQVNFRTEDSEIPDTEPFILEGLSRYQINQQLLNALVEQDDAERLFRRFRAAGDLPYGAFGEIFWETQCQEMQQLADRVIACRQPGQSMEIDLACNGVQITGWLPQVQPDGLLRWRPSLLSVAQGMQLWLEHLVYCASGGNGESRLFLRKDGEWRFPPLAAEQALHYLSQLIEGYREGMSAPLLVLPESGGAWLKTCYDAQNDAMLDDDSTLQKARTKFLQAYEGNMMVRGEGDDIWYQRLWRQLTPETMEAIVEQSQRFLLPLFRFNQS
# T1 sequence (P08394 whole entry): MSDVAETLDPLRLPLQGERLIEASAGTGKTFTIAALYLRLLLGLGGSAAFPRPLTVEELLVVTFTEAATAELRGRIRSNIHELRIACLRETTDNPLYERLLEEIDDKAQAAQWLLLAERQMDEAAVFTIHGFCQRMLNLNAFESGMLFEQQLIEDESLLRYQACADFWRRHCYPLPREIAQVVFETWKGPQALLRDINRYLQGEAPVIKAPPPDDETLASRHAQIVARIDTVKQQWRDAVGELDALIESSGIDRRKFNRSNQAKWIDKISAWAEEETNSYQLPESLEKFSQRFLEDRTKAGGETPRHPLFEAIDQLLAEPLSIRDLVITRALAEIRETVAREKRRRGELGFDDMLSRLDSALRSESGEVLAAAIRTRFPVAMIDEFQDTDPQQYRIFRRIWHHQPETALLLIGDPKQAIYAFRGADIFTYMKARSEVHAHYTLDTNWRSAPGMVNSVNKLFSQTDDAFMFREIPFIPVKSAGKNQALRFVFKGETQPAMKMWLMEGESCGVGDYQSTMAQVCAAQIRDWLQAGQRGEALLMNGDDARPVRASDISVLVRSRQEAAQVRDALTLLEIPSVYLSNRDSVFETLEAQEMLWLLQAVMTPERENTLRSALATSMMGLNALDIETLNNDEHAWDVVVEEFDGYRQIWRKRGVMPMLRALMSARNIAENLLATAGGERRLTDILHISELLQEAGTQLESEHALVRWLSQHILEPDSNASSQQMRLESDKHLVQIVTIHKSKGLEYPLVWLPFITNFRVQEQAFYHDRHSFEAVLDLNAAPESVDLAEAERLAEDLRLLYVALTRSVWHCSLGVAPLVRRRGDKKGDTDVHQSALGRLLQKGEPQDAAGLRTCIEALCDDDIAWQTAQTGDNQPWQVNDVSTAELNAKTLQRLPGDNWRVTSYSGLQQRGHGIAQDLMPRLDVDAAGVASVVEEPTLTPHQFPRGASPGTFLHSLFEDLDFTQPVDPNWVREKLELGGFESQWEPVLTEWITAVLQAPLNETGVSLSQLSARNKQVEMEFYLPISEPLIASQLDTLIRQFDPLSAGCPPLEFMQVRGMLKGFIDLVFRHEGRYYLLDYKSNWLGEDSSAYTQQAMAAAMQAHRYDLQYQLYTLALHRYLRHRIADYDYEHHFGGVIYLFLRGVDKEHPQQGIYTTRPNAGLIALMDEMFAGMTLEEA
# [2] = target: T2, Alkaline phosphatase, tissue-nonspecific isozyme (Homo sapiens, UniProt P05186); assay: human TNAP enzyme inhibitors, SAR follow-up, biochemical, luminescent, dose response (AID 1056)
# T2 sequence (P05186 whole entry): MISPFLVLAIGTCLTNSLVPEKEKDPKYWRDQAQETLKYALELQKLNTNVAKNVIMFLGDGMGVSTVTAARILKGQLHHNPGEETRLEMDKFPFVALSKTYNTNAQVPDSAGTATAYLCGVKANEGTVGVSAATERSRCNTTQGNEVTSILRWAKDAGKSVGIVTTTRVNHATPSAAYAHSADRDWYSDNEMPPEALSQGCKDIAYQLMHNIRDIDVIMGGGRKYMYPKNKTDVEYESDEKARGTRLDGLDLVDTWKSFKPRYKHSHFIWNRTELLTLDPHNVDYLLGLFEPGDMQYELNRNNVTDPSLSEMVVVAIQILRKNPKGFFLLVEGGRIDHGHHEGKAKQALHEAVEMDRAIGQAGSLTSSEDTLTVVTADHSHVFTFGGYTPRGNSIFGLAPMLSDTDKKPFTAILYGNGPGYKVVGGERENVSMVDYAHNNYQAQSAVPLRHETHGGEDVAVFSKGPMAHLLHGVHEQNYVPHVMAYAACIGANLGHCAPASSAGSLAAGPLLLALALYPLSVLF
# [3] = target: G-protein coupled receptor 55 (Homo sapiens, UniProt Q9Y2T6); assay: GPR55 antagonists blocking LPI-driven arrestin recruitment, primary screen, imaging, U2OS, beta-arrestin-GFP, LPI agonist (AID 2013); type: functional;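 note: antagonist potency measured as reduced agonist-driven arrestin aggregation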
# Protein RecA = target: T3, Protein RecA (Mycobacterium tuberculosis, UniProt P9WHJ3); assay: Fluorescence Cell-Free Homogeneous Dose Retest to Identify Inhibitors of RecA-Intein Splicing Activity. [Related pubchem assays (depositor defined):AID2097, AID2223, AID489010, AID492950]; type: functional
# T3 sequence (P9WHJ3 whole entry): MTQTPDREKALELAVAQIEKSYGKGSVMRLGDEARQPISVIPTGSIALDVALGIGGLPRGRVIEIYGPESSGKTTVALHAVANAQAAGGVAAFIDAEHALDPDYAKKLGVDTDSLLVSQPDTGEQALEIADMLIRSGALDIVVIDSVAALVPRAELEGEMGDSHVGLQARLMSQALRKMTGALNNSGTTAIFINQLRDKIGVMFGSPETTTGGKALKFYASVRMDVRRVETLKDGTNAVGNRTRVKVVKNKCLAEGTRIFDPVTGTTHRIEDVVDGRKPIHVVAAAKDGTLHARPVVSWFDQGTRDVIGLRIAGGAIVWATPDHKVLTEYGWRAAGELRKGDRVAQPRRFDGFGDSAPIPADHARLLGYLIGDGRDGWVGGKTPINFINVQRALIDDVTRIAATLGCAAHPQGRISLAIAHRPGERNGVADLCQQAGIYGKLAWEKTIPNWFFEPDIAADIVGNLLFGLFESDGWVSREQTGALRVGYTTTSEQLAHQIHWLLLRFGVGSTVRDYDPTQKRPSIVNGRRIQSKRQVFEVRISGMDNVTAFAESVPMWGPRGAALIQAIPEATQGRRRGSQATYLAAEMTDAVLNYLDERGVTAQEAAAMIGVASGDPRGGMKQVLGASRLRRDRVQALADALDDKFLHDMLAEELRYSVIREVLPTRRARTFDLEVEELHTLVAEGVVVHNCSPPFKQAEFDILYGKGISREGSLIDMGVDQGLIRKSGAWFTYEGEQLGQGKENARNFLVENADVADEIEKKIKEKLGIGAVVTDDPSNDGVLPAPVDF
# Fatty acid synthase [4] = target: T4, Fatty acid synthase (Homo sapiens, UniProt P49327); assay: FAS thioesterase domain inhibitors, dose response, biochemical, endpoint fluorescence intensity, uHTS hits (AID 624327); type: functional;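 note: fluorescence from hydrolysis of an O-methyl fluorescein acyl ester substrate by the enzyme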
# Fatty acid synthase [5] = target: T4, Fatty acid synthase; assay: FAS thioesterase domain inhibitors, dose response, biochemical, kinetic fluorescence intensity (AID 624326); type: functional;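 note: rate of fluorescence rise from hydrolysis of a fluorogenic O-methyl fluorescein ester substrate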
# [6] = target: T5, Replicative DNA helicase DnaB (Mycobacterium tuberculosis, UniProt P9WMR3); assay: DnaB intein splicing inhibitors, dose response, biochemical, cell-free fluorescence (AID 449749); type: functional
# T5 sequence (P9WMR3 whole entry): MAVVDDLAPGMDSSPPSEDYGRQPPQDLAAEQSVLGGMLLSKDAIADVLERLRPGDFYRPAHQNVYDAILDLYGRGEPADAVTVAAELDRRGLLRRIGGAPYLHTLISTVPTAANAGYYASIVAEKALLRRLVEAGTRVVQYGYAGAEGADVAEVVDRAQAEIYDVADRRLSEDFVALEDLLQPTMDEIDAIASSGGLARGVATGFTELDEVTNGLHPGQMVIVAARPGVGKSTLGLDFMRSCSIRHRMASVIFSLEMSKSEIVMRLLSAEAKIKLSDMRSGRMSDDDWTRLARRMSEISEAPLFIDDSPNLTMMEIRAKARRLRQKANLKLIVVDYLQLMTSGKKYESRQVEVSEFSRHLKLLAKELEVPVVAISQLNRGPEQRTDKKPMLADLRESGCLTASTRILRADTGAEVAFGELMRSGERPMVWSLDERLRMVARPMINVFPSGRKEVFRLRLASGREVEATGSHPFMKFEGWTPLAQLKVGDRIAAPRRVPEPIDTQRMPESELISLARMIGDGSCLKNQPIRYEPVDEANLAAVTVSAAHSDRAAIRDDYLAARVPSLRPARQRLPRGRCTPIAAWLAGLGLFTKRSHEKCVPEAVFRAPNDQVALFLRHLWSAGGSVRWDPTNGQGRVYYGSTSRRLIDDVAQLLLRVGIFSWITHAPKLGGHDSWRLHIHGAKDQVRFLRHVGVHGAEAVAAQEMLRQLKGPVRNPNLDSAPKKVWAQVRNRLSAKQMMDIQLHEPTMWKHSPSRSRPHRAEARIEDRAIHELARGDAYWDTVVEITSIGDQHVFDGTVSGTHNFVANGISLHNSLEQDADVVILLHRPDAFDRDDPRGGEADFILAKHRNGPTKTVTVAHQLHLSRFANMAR
# T4 sequence (P49327 whole entry, the tested form may be a part): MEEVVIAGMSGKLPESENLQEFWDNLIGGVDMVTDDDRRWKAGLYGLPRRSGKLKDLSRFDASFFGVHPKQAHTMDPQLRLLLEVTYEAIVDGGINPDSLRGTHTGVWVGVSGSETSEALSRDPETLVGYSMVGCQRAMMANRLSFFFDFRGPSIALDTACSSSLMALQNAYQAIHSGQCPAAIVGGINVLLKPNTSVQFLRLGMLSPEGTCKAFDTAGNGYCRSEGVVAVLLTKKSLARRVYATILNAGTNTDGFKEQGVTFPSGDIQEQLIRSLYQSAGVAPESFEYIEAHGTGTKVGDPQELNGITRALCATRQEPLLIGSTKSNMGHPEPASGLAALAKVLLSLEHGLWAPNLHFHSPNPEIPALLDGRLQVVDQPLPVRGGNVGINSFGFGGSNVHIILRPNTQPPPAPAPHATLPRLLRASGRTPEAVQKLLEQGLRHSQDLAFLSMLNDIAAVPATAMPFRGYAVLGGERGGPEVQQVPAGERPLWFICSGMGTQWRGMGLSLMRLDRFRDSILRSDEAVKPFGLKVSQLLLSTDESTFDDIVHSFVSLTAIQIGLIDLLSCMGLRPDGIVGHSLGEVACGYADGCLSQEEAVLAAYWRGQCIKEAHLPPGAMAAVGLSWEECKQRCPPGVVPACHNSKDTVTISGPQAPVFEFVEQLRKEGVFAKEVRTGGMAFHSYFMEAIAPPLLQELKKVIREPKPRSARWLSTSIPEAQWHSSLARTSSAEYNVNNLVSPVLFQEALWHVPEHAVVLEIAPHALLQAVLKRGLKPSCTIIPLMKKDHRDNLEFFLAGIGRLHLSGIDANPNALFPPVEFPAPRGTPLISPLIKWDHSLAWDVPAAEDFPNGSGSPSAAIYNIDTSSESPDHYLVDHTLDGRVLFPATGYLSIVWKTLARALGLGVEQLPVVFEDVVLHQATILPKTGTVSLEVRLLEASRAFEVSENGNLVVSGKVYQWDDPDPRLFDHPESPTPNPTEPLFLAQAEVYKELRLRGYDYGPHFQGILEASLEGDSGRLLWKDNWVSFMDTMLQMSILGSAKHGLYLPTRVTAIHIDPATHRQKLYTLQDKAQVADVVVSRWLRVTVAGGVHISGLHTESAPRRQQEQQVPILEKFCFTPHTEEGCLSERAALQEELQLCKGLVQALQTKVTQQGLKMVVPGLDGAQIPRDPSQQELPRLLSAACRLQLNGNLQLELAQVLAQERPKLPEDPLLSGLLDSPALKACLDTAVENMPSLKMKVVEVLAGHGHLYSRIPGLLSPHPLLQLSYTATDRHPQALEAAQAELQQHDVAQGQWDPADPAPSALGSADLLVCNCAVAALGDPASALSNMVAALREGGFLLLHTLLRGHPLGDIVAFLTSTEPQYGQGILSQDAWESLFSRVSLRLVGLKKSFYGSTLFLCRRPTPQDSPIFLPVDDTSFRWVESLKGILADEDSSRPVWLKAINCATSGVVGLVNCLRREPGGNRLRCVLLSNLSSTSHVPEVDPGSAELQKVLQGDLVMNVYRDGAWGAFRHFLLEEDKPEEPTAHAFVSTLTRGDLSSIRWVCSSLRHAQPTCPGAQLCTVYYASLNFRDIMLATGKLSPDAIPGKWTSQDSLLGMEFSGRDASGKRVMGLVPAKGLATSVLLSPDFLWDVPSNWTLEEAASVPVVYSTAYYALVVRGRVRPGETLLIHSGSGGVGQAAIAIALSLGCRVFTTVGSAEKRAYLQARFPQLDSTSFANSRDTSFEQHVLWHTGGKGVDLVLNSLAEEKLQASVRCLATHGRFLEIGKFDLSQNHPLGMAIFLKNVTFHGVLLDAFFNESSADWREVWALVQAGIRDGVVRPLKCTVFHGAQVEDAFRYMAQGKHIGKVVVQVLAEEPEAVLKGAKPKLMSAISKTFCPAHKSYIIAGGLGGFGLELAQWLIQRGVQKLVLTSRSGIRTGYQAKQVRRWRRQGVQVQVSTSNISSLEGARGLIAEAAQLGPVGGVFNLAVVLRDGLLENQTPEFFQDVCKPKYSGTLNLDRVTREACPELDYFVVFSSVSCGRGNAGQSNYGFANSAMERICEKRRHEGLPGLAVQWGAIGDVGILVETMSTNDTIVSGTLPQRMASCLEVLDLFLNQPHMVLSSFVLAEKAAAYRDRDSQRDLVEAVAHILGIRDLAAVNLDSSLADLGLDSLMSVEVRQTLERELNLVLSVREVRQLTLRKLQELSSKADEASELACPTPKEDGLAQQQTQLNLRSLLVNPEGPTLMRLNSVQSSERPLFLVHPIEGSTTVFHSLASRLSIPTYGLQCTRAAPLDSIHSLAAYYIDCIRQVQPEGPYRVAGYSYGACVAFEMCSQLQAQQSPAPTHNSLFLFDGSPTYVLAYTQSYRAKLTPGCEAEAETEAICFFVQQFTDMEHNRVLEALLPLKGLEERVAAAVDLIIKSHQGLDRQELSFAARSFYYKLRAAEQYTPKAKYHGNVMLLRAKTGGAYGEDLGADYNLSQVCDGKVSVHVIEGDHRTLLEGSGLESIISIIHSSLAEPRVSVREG
# G-protein coupled receptor 55, sequence (Q9Y2T6 whole entry): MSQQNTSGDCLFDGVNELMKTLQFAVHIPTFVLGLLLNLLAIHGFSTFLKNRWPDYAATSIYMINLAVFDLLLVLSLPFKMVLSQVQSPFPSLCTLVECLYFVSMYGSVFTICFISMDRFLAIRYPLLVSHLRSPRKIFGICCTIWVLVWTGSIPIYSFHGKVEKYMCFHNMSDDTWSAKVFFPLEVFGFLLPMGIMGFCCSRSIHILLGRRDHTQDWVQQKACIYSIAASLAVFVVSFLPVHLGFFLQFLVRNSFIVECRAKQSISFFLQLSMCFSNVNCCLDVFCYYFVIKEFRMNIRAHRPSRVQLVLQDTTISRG
smiles,measurement,setting,value
COc1ccc(-c2cc(N3CCCC3)n3ncnc3n2)cc1,IC50,[1],> 119 µM (inactive)
same,IC50,Exodeoxyribonuclease V,> 119 µM (inactive)
O=C(O)c1[nH]nc2c1COc1ccccc1-2,IC50,[2],1.31 µM (active)
O=C(Nc1ccc(Cl)cc1)C(Cl)C(=O)c1ccccc1 (stereo not drawn),IC50,[3],1.07 µM (active)
same,EC50,Protein RecA,30.3 µM (active)
same,IC50,Fatty acid synthase [4],4.3 µM (active)
same,IC50,Fatty acid synthase [5],4.67 µM (active)
same,AC50,[6],5.89 µM (active)
